Experimental data taken from patent US4614732A, “N^6 -acenaphthyl adenosines and analogs thereof” (Warner-Lambert Company, priority 1985, dated 1986).
pIC50: −log10 of the molar value.

Assays:
rat heart = experiment: Coronary Blood Flow Evaluation: isolated perfused rat heart; settings: for activation at 1 µM / inhibition at 1 µM: 1 × 10^-6 Molar; for activation at 0.1 µM / inhibition at 0.1 µM: 1 × 10^-7 Molar; for activation at 0.01 µM / inhibition at 0.01 µM: 1 × 10^-8 Molar; for activation at 3 µM / inhibition at 3 µM: 3 × 10^-6 Molar; for activation at 0.3 µM / inhibition at 0.3 µM: 3 × 10^-7 Molar; for activation at 0.03 µM / inhibition at 0.03 µM: 3 × 10^-8 Molar
Experimental: The usefulness of the compounds of the present invention as agents effective to treat angina, is shown by their effectiveness in standard pharmacological test procedures, for example, in causing significant increase in coronary blood flow in rats. This test procedure is described in the following paragraphs.
Male rats (400-600 gms) are pretreated with Na heparin 2000 units and anesthetized with Na pentobarbital (50 mg/kg) administered intraperitoneally. Once anesthetized, the rat heart is rapidly excised, the ascending aorta fitted to the aortic perfusion cannula, and secured with a ligature. The coronary arteries were perfused initially at a rate of about 15 ml/min for two to three minutes, after which they are perfused at constant pressure of 70 mm Hg and temperature of 37° C. The electrocardiogram (ECG) is recorded using two platinum electrodes positioned at the base and apex of the left venticle. A second heart is excised, cannulated, and perfused by the same method outlined above. Both hearts are tested in parallel. The standard physiological salt solution (PSS) is a modified Krebs-Hanseleit bicarbonate buffer of the following composition in mM concentration: NaCl, 127; NaHCO3, 25; dextrose, 5.5; Na Pyruvate, 2.0; KCl, 4.7; MgSO4, 1.1; KH2 PO4, 1.2; CaCl2.2H2 O, 2.5; CaNa2 EDTA, 0.05.
A 30-minute stabilization period is observed before starting the test protocol.
The microprocessor control system is a servo mechanism which permits coronary perfusion pressure (CPP) and drug concentration to be maintained constant independent of changes in coronary flow. The level at which CPP and drug concentration are maintained can be changed by commands communicated through the microprocessor keyboard. Dose-response curves are carried out by perfusing concentrated drug solution (DC) at rates proportional to total coronary flow (CFT). Drug concentrations are increased by proportionate increases in the rate of DC infusion over CFT via the microprocessor keyboard. The proportional flow rates for DC:CFT is about 0.0002:1 at the low end and 0.02:1 at the high end of the dose-response curve. Dose-response curves encompassing at least two log doses are carried out by preparing two DCs with a concentration difference of 1:100. Following the first dose range of two log doses, the DC are switched, proportional pumping rate adjusted, and the dose-responsecurve continued for another two log doses. The standard dose-response curve is carried out in one-half log dose increments starting at a subthreshold dose and ending at a dose which produces near maximal response in activity. Standard reference compounds are tested over the range of 10^-9 to 10^-6 M.
Measurements are for heart rate (HR) and coronary flow (CF). Units are: HR, beats/minute (bpm) and CF, milliliters/minute (ml/min). HR is calculated from the ECG strip chart recording and CF is calculated by recording analog outputs from pumps 1 and 2. Outputs from pump #1=CFT and the output from pump #2=CF for heart B (CFB). CF for heart A (CFA) is calculated (CFT -CFB =CFA).
Using the above techniques, the effects of the compound of Examples 1, 2 and 3 are as follows indicating the compound of Example 3 is preferred to increase coronary blood flow.

adenosine A2 receptor = molecular target: T1, adenosine A2 receptor (Rattus norvegicus, UniProt P30543); experiment: Adenosine Receptor Binding--A2 Receptor Affinity (RBA2), [3H]NECA displacement, rat striatal membranes; design: species or system rat (Sprague-Dawley; Long-Evans); settings: 4 nM [3H]NECA, 50 nM N6-cyclopentyladenosine, 25° C., 60 min, read-out: IC50 for adenosine A2 receptor affinity (RBA-2)
T1 construct: Brains were thawed and then kept on ice while the striata were dissected out; tissue Pel-Freez (Rogers, Ark.); host or cells: rat striatum, membranes
Experimental: Brains from 200-500 g mixed sex Sprague-Dawley rats were purchased from Pel-Freez (Rogers, Ark.). Fresh brains from male Long-Evans hooded rats (Blue Spruce Farms, Altamont, NY) gave essentially identical results. Brains were thawed and then kept on ice while the striata were dissected out. Striata were disrupted in 10 vol of ice-cold 50 mM Tris.HCl (pH 7.7 at 25° C., pH 8.26 at 5° C.) (Tris) for 30 seconds in a Polytron PT-10 (Brinkmann) at setting 5. The suspension was centrifuged at 50,000×g for ten minutes, the supernatant discarded, the pellet resuspended in 10 vol ice-cold Tris as above, recentrifuged, resuspended at 1 g/5 ml, and stored in plastic vials at -70° C. (stable for at least six months). When needed, tissue was thawed at room temperature, disrupted in a Polytron, and kept on ice until used.
All incubations were for 60 minutes at 25° C. in 12×75 mm glass tubes containing 1 ml Tris with 5 mg original tissue weight of rat weight of rat striatal membranes, 4 nM [^3 H]-N-ethyl adenosine-5'-carboxamide ([^3 H]NECA), 50 nM N^6 -cyclopentyladenosine (to eliminate A1 receptor binding), 10 mM MgCl2, 0.1 units/ml of adenosine deaminase and 1% dimethylsulfoxide. N^6 -Cyclopentyladenosine was dissolved at 10 mM in 0.02N HCl and diluted in Tris. […]
Incubations were terminated by filtration through 2.4 cm GF/B filters under reduced pressure. […] Filters were put in scintillation vials, 8 ml of Formula 947 scintillation fluid added, and the vials left overnight, shaken, and counted in a liquid scintillation counter at 40% efficiency.
Nonspecific binding was defined as binding in the presence of 100 μM N^6 -cyclopentyladenosine, and specific binding was defined as total binding minus nonspecific binding. The IC50 was calculated by weighted nonlinear least squares curve-fitting to the mass-action equation. […]
Weighting factors were calculated under the assumption that the standard deviation was proportional to the predicted value of Y. Nonspecific binding was treated as a very large (inifinite) concentration of drug in the computer analysis.

adenosine A1 receptor = molecular target: T2, adenosine A1 receptor (Rattus norvegicus, UniProt P25099); experiment: Adenosine Receptor Binding--A1 Receptor Affinity (RBA1), [3H]-CHA displacement, rat whole brain membranes; design: species or system rat (male Long Evans); settings: 1.0 nM [3H]-CHA, 25° C., one hour, read-out: IC50 for adenosine A1 receptor affinity (RBA-1)
T2 construct: Whole brain minus cerebellum and brainstem from male Long Evans rats; from tissue; host or cells: rat whole brain minus cerebellum and brainstem, membranes
T2 sequence (P25099 1-326): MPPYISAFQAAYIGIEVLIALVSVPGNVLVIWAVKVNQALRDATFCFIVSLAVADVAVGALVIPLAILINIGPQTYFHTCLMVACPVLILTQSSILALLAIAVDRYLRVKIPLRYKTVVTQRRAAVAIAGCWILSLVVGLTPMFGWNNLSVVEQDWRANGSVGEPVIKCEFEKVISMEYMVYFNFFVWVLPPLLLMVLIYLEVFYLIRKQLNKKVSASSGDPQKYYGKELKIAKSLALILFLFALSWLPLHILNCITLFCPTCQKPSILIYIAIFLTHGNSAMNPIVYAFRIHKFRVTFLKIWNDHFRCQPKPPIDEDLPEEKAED
Experimental: Whole brain minus cerebellum and brainstem from male Long Evans rats (150-200 g) was homogenized in 30 volumes of ice-cold 0.05M Tris-HCl buffer pH 7.7 using a Brinkman Polytron PT-10, (setting number 6 for 20 seconds) and centrifuged for ten minutes at 20,000×g (Sorvall RC-2), 4° C. The supernatant was discarded, and the pellet was resuspended and centrifuged as before. The pellet was resuspended in 20 ml Tris-HCl buffer containing two International Units/ml of adenosine deaminase (Sigma type III from calf intestinal mucosa), incubated at 37° C. for 30 minutes, then subsequently at 0° C. for ten minutes. The homogenate was again centrifuged, and the final pellet was resuspended in ice-cold 0.05M Tris-HCl buffer pH 7.7 to a concentration of 20 mg/ml original wet tissue weight and used immediately.
Tissue homogenate (10 mg/ml) was incubated in 0.05M Tris-HCl buffer pH 7.7 containing 1.0 nM [^3 H]-N^6 -cyclohexyladenosine ([^3 H]-CHA) with or without test agents in triplicate for one hour at 25° C. Incubation volume was 2 ml. Unbound [^3 H]-CHA was separated by rapid filtration under reduced pressure through Whatman glass fiber (GF/B) filters. The filters were rinsed three times with 5 ml of ice cold 0.05M Tris-HCl buffer pH 7.7. The radio-labeled ligand retained on the filter was measured by liquid scintillation spectrophotometry after shaking the filters for one hour or longer on a mechanical shaker in 10 ml of Beckman Ready-Solv HP scintillation cocktail.
Nonspecific binding was defined as the binding which occurred in the presence of 1 mM theophylline. The concentration of test agent which inhibited 50% of the specific binding (IC50) was determined by nonlinear computer curve fit. The Scatchard plot was calculated by linear regression of the line obtained by plotting the amount of radioligand bound (pmoles/gram of tissue) versus [formula] […] The Hill coefficient was calculated by linear regression of the line obtained by plotting the log of the bound radioligand vs the log of the [formula] The maximal number of binding sites (Bmax) was calculated from the Scatchard plot.

[1] = read-out: coronary flow (CF), % increase
[2] = read-out: heart rate (HR), % decrease

T1 sequence (P30543 whole entry): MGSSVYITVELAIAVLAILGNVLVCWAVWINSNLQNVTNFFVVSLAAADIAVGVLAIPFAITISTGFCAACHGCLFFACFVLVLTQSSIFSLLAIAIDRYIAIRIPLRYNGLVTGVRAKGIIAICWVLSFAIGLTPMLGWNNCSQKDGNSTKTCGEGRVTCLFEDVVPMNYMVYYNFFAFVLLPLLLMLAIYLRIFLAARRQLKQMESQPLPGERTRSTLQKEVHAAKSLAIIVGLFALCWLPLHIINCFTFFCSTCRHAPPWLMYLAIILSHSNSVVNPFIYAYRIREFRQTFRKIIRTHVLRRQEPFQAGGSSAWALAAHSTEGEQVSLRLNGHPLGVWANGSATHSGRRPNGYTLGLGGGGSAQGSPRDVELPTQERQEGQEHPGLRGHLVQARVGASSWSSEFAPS

`OC[C@H]1O[C@@H](n2cnc3c(NC4Cc5cccc6cccc4c56)ncnc32)[C@H](O)[C@@H]1O` (stereo partly drawn) [Example 1, N^6 -Acenaphthyladenosine] showed an activation at 1 µM (rat heart; [1]) of 44%, an inhibition at 1 µM (rat heart; [2]) of 5% and an activation at 0.1 µM (rat heart; [1]) of 27%. For the same compound, the inhibition at 0.1 µM (rat heart; [2]) was 2%, the activation at 0.01 µM (rat heart; [1]) was 0% and the inhibition at 0.01 µM (rat heart; [2]) was 1%. For the same compound, the activation at 3 µM (rat heart; [1]) was 49%, the inhibition at 3 µM (rat heart; [2]) was 8% and the activation at 0.3 µM (rat heart; [1]) was 40%. It also gave an inhibition at 0.3 µM (rat heart; [2]) of 2%, an activation at 0.03 µM (rat heart; [1]) of 7% and an inhibition at 0.03 µM (rat heart; [2]) of 0%. It also gave a pIC50 (adenosine A2 receptor) of 6.02 and a pIC50 (adenosine A1 receptor) of 6.19.
Compound `OC[C@H]1O[C@@H](n2cnc3c(NCC4=Cc5cccc6cccc4c56)ncnc32)[C@H](O)[C@@H]1O` [Example 2, N^6-(1-acenaphthylenylmethyl)adenosine] has an activation at 1 µM (rat heart; [1]) of 62%, an inhibition at 1 µM (rat heart; [2]) of 30% and an activation at 0.01 µM (rat heart; [1]) of 37%. For the same compound, the inhibition at 0.01 µM (rat heart; [2]) was 1%, the activation at 0.001 µM (rat heart; 1 × 10^-9 Molar, read-out: coronary flow (CF), % increase) was 2% and the inhibition at 0.001 µM (rat heart; 1 × 10^-9 Molar, read-out: heart rate (HR), % decrease) was -1%. It also gave an activation at 0.3 µM (rat heart; [1]) of 60%, an inhibition at 0.3 µM (rat heart; [2]) of 25% and an activation at 0.03 µM (rat heart; [1]) of 48%. The inhibition at 0.03 µM (rat heart; [2]) was 4%, the activation at 0.003 µM (rat heart; 3 × 10^-9 Molar, read-out: coronary flow (CF), % increase) was 7% and the inhibition at 0.003 µM (rat heart; 3 × 10^-9 Molar, read-out: heart rate (HR), % decrease) was -1%. The pIC50 (adenosine A2 receptor) was 7.20 and the pIC50 (adenosine A1 receptor) was 7.04.
In the case of `OC[C@H]1O[C@@H](n2cnc3c(NCC4Cc5cccc6cccc4c56)ncnc32)[C@H](O)[C@@H]1O` (stereo partly drawn) [Example 3, N^6-[(1,2-Dihydro-1-acenaphthylenyl)methyl]adenosine], the activation at 1 µM (rat heart; [1]) was 62%, the inhibition at 1 µM (rat heart; [2]) was 65% and the activation at 0.1 µM (rat heart; [1]) was 58%. The inhibition at 0.1 µM (rat heart; [2]) was 36%, the activation at 0.01 µM (rat heart; [1]) was 41% and the inhibition at 0.01 µM (rat heart; [2]) was 2%. For the same compound, the activation at 3 µM (rat heart; [1]) was 67%, the inhibition at 3 µM (rat heart; [2]) was 68% and the activation at 0.3 µM (rat heart; [1]) was 67%. The inhibition at 0.3 µM (rat heart; [2]) was 44%, the activation at 0.03 µM (rat heart; [1]) was 49% and the inhibition at 0.03 µM (rat heart; [2]) was 8%. The pIC50 (adenosine A2 receptor) was 7.62 and the pIC50 (adenosine A1 receptor) was 8.22.
